Series [1] concerns the target ATP-binding cassette sub-family C member 2 (Homo sapiens, UniProt Q92887). As to the kind of experiment: TP_TRANSPORTER: inhibition of LTC4 uptake (LTC4: 0.05 uM, MK571: 10 uM) in membrane vesicles from MRP2-expressing MDCK cells. Type of series: functional, cell membranes, Membrane vesicle. The settings on record: dog.
In series [2] the target is ATP-dependent translocase ABCB1 (Homo sapiens, UniProt P08183). As to the kind of experiment: TP_TRANSPORTER: cell accumulation in CCRF-CEM and CEM/VLB100 cells. Type of series: functional, cell-based.
Chain of ATP-dependent translocase ABCB1 (P08183 whole entry): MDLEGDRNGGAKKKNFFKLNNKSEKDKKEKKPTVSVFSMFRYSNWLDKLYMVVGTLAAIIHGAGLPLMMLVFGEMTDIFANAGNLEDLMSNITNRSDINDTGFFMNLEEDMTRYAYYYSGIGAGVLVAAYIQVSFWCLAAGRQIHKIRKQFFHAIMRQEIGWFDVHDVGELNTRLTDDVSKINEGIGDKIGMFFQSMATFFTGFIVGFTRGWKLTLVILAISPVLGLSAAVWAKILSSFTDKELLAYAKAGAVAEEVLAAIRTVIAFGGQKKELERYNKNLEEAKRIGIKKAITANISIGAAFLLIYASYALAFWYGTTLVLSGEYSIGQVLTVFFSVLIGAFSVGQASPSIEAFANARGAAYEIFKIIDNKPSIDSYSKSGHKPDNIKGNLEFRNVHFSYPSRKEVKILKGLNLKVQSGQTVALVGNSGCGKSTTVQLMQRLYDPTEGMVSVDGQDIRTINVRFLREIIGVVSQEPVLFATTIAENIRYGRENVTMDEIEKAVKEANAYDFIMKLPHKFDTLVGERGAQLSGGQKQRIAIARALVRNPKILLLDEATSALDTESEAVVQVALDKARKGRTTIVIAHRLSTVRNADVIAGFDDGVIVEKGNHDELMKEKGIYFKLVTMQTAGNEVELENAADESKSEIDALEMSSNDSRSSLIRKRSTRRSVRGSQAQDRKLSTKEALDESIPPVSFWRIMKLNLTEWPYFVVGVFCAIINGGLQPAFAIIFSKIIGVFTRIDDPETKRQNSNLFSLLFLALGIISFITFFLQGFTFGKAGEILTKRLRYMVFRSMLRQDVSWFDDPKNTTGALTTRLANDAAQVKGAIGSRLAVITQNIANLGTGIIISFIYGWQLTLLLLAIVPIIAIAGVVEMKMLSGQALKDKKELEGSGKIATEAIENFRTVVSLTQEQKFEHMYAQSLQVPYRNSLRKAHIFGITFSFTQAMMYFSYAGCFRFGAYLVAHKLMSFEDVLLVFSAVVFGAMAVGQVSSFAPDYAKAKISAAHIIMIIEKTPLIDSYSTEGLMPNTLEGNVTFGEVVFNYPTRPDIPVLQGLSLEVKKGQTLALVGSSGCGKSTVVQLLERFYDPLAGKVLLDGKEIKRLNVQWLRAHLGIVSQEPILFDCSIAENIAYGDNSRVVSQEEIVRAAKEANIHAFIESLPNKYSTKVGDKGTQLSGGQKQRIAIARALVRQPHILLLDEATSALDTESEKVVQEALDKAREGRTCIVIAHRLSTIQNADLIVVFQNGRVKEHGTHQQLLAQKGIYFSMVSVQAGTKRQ

Molecules are shown by their SMILES.

Chain of ATP-binding cassette sub-family C member 2 (Q92887 whole entry): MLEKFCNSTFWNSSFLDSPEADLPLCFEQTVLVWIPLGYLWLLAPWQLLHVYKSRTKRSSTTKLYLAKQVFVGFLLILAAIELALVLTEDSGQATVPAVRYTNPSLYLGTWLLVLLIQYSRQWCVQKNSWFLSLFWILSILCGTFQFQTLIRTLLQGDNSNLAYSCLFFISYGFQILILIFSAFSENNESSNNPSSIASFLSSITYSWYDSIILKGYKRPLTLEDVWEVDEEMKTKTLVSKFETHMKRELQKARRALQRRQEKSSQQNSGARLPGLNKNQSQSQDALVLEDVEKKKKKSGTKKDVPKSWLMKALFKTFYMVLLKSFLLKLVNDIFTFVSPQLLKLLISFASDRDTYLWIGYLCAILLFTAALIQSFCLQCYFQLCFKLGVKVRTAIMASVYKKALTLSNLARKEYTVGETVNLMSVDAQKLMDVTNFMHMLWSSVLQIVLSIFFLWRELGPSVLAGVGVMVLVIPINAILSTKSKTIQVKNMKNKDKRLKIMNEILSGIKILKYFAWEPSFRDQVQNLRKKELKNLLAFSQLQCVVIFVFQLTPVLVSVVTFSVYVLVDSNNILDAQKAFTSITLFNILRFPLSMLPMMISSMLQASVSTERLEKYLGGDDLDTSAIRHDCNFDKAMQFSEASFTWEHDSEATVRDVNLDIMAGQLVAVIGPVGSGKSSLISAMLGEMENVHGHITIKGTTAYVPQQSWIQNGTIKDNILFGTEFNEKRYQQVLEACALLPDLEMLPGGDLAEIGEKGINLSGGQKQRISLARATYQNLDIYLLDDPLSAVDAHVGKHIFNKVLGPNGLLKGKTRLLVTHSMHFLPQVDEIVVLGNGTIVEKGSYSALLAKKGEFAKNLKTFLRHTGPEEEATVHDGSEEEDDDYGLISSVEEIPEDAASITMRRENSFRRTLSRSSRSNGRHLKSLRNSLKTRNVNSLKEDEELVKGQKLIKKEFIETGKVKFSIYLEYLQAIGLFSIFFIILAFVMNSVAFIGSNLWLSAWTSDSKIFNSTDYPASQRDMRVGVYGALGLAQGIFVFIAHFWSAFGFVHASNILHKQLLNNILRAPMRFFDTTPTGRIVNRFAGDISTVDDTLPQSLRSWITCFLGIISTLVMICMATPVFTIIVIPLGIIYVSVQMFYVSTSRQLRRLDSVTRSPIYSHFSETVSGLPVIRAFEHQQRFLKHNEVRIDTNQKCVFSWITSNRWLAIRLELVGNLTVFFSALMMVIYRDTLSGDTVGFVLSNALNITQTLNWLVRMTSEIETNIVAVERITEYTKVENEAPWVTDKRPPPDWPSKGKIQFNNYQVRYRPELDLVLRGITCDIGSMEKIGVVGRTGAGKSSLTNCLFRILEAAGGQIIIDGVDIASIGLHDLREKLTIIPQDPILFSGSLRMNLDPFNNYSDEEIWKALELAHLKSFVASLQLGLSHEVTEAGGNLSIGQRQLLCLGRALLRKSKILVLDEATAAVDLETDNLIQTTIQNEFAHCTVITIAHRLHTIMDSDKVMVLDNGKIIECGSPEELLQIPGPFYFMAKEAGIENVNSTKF

On to `CN(C)C(=O)CCSC(SCCC(=O)O)c1cccc(/C=C/c2ccc3ccc(Cl)cc3n2)c1` (stereo not drawn) [MK-571], for which, in series [1], the Activity result was “inhibitor [+]”.

As for `CC[C@]1(O)C[C@@H]2CN(CCc3c([nH]c4ccccc34)[C@@](C(=O)OC)(c3cc4c(cc3OC)N(C)[C@H]3[C@@](O)(C(=O)OC)[C@H](OC(C)=O)[C@]5(CC)C=CCN6CC[C@]43[C@@H]65)C2)C1` [VINBLASTINE], the Activity entry in series [2] is “substrate [+]”.

Turning to `Cl.Cl.Cl.O[C@@H](COc1cccc2ncccc12)CN1CCN([C@@H]2c3ccccc3[C@@H]3[C@H](c4ccccc42)C3(F)F)CC1` [ZOSUQUIDAR TRIHYDROCHLORIDE], the Activity result in series [2] was “is not a substrate [-]”.

The record behind these values is ChEMBL document CHEMBL2073838, “Selectivity of the multidrug resistance modulator, LY335979, for P-glycoprotein and effect on cytochrome P-450 activities” (J Pharmacol Exp Ther, 1999).
